Data from patent US4548952A, “2-[(2,6-Dichlorophenyl)amino]phenylacetoxyacetyl derivatives and therapeutic compositions containing same” (priority 1983, dated 1985).

Legend:
[1] = Plantar carrageenin edema test (anti-inflammatory); type: in vivo, albino Sprague-Dawley male rats; conditions: gastric catheter; for Inhibition % M ± σ: complementary value to area relative inflammation; for % Area Relative Inflammation (M ± σ): control = 100%
Protocol: The anti-inflammatory activity of two compounds was studied by means of the test of the plantar carrageenin edema (C. A. Winter, Proc. Soc. Exp. Brol. Med. 111, 544-47 (1962). The method used consists of preparing homogeneous lots of albino Sprague-Dawley male rats with weights of from 180-200 gr, to which are administered, by gastric catheter, the test compound suspended in a vehicle containing 0.2% CMC and 0.1% Tween 80, sixty minutes before the production of the subplantar edema. […] Immediately after this, all the rats received via oral administration 20 ml/kg of distilled water to attain uniform hydration. 60 minutes later a 1% carrageenin solution in physiologic serum was administered subcutanaceously into the left rear leg of each rat, at a dosage of 0.1 ml/rat. The same amount of physiologic serum was then injected into the right rear leg of each rat.
The plantar amount of the left and right rear extremities of each rat was determined before the administration of the carrageenin solution, and 1, 2, 3, 4, 5 and 6 hours after the administration thereof by means of a mercury plethysmograph, Ugo Basile Model 7.100. Indomethacin was used as a sample drug for purposes of comparison. Results were calculated as percentages representing the value indicated for each area relative to the value of the areas for the control group to which were assigned the value of 100% inflammation. A complementary value, the percentage of inhibition, was also calculated from the data. The arithmetic average and standard deviation (M±σ) were calculated for the obtained values as to the volumes of each leg, normal or inflamed, for each animal in each group (control and treated).

[2] = Acute toxicity by oral administration to rats; conditions: for LD0: oral, rats
Protocol: The acute toxicity of the foregoing compounds according to the present invention was studied by oral administration thereof to rats. The LD0 and LD50 values were determined, together with the limits of reliability as determined by the method of Litchfield and Wilcoxon.

[3] = Fetal and teratogenous toxicity; type: in vivo, Sprague-Dawley rats and first generation fetuses; conditions: 15, 50 and 75 mg/kg/day oral during organogenesis
[4] = Test of abdominal contractions by acetic acid (analgesic); type: in vivo, male mice; conditions: gastric catheter, 16 mice, half an hour before acetic acid i.p.
Protocol: (§1) The new 2-[(2,6-dichlorophenyl)amino]phenylacetoxyacetyl derivatives, according to the present invention, are compounds of therapeutic use with anti-inflammatory and analgesic pharmacologic properties, as shown by experimental pharmacologic data presented below. The analgesic activity of the compound (I) where R=H was determined by three known methods as follows.
This test was carried out according to the experimental model described by Koster R., Anderson, M. and De Bear, E. J. Fed. Proc., 18, 412 (1959). A suspension of the product to be tested was administered to a group of male mice through a gastric catheter half an hour before injecting the mice intraperitoneally with 0.2 ml of a 2% acetic acid solution. The number of abdominal contractions, manifested by drawing in of the rear third of the animal as a consequence of the chemical aggression incited by the acetic acid, were then counted.

[5] = Hot plate thermal stimulus test on mice (analgesic); type: in vivo; conditions: gastric catheter, hot plate 56° C., 10 mice, vs control mice
Protocol: as §1
This test is carried out according to the experimental model of Wolfe, G. and MacDonal, A. D., described in 3. Pharm. Exper. Therap. 80, 300 (1944). This test consists of administering, through a gastric catheter, a suspension of the test compound at the indicated dosages. After 30 minutes, 1 h., 11/2 h. and 2 h. the determinations were made. Mice were placed onto a hot plate at a temperature of 56° C. Table 2 indicates the percentage of protection from pain afforded by the dosages of the test compound in comparison with a group of control mice to which no test compound was administered.

[6] = Podolorimetric test in a rat (analgesic, yeast-infected leg); type: in vivo; conditions: 10 rats, vs control rats
Protocol: as §1
This test is based upon the method described by Randall, L. and Selitto, 3. Arch. Int. Pharmacodyn. 111, 409 (1957), consisting of administering the drug in a 1% carboxymethylcellulose (CMC) suspension. The test compound is administered to the rat, and 30 minutes thereafter a 20% yeast suspension is administered into the left leg of the rat and the same amount of physiologic serum is administered to the right leg of the rat. The threshold of the weight supported by both legs is determined 1 h., 2 h. and 4 h. after the administration of the yeast. Table 3 states the percentage of protection in terms of increased weight supported by the yeast-infected leg, relative to the dosage of the test compound, in comparison with a group of control rats to which no test compound was administered.

| Compound | Inhibition % M ± σ ([1]; 2.5 mg/kg, 40 animals) [%] | % Area Relative Inflammation (M ± σ) ([1]; 2.5 mg/kg, 40 animals) [%] | Inhibition % M ± σ ([1]; 3.75 mg/kg, 32 animals) [%] | % Area Relative Inflammation (M ± σ) ([1]; 3.75 mg/kg, 32 animals) [%] | LD0 [2] [mg/kg] | LD50 ([2]; rat, in vivo, po) [mg/kg] | teratogenous effects [3] | toxic effects on the gestating females [3] | % PROTECTION (CONTROL OF CONTRACTIONS) ([4]; 100 mg/kg) [%] | % PROTECTION (CONTROL OF CONTRACTIONS) ([4]; 250 mg/kg) [%] | % PROTECTION ([5]; 20 mg/kg) [%] | % PROTECTION ([5]; 40 mg/kg) [%] | % PROTECTION (increased weight supported by the yeast-infected leg) ([6]; 2.5 mg/kg) [%] | % PROTECTION (increased weight supported by the yeast-infected leg) ([6]; 10 mg/kg) [%] | Inhibition % M ± σ ([1]; 3.0 mg/kg, 32 animals) [%] | % Area Relative Inflammation (M ± σ) ([1]; 3.0 mg/kg, 32 animals) [%] |
| --- | --- | --- | --- | --- | --- | --- | --- | --- | --- | --- | --- | --- | --- | --- | --- | --- |
| COc1ccc2c(c1)c(CC(=O)O)c(C)n2C(=O)c1ccc(Cl)cc1 [INDOMETHACIN, Indomethacin, reference compound] | 46.52 | 53.48 ± 7.82 | – | – | – | – | – | – | – | – | – | – | – | – | – | – |
| O=C(COC(=O)Cc1ccccc1Nc1c(Cl)cccc1Cl)OCc1ccccc1 [I, R = CH2 --C6 H5, Benzyl 2-[(2,6-dichlorophenyl)amino]phenylacetoxyacetate] | – | – | 35.96 | 64.04 ± 7.91 | 38.51 | 95.3 | did not have any teratogenous effects | did not produce any toxic effects on the gestating females | – | – | – | – | – | – | – | – |
| O=C(O)COC(=O)Cc1ccccc1Nc1c(Cl)cccc1Cl [I, R = H, 2-[(2,6-dichlorophenyl)amino]phenylacetoxyacetic acid] | – | – | – | – | 68.03 | – | did not have any teratogenous effects | did not produce any toxic effects on the gestating females | 30.81 | 67.62 | 22.44 | 24.80 | 32.05 | 45.45 | 33.75 | 63.25 ± 5.88 |
